Assay results: the supplement of paper PMC10307832

Legend:
Experiment in all cases: relative viability (nuclei count vs DMSO), 5 days (fraction); higher = more cells survive
[1] = compound: CC[C@@H](C)CNCC(=O)N1CCC2=C([C@@H]1COC3=CC=CC(=C3)C)C=CS2 [RU-SKI 43] + C[C@@H](Oc1cc(-c2cnn(C3CCNCC3)c2)cnc1N)c1c(Cl)ccc(F)c1Cl [Crizotinib] (partner 1 µM)
Outline: (§1)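 Cells from lung cancer lines were seeded into 1536-well plates and, one day later, dosed by pin tool. Treatments were either a single drug or a fixed dose of an anchor drug with five library-drug doses (not always all listed) in √10 steps. After 5 days, nuclei were stained in a one-step fixation (final 0.05% Triton X-100, 1% formaldehyde, 1 ug/ml Hoechst) and counted on 4× images, and relative viability is the treated-to-vehicle nuclei ratio, as the median of duplicate plates.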

[2] = compound: Cn1cc(-c2cnc3ccc4ccc(CS(=O)(=O)NCc5ccccn5)cc4c(=O)c3c2)cn1 [MK-8033] + CC(C)C[C@H](NC(=O)[C@H](Cc1ccccc1)NC(=O)c1cnccn1)B(O)O [Bortezomib] (partner 0.002 µM)
Outline: as §1

[3] = compound: CC[C@@H](C)CNCC(=O)N1CCC2=C([C@@H]1COC3=CC=CC(=C3)C)C=CS2 [RU-SKI 43] + C[C@]1(O)C[C@@H](c2nc(-c3ccc4ccc(-c5ccccc5)nc4c3)c3c(N)nccn32)C1 [Linsitinib] (partner 1 µM)
Outline: as §1

[4] = compound: CC[C@@H](C)CNCC(=O)N1CCC2=C([C@@H]1COC3=CC=CC(=C3)C)C=CS2 [RU-SKI 43] + Nc1ncn([C@H]2C[C@H](O)[C@@H](CO)O2)c(=O)n1 [Decitabine] (partner 2 µM)
Outline: as §1

| Cell Line | relative viability ([1]; first compound 0.1 µM) | relative viability ([1]; first compound 0.3162 µM) | relative viability ([1]; first compound 1 µM) | relative viability ([1]; first compound 3.162 µM) | relative viability ([1]; first compound 10 µM) | relative viability ([2]; first compound 0.02 µM) | relative viability ([2]; first compound 0.06325 µM) | relative viability ([2]; first compound 0.2 µM) | relative viability ([2]; first compound 0.6325 µM) | relative viability ([2]; first compound 2 µM) | relative viability ([3]; first compound 0.1 µM) | relative viability ([3]; first compound 0.3162 µM) | relative viability ([3]; first compound 1 µM) | relative viability ([3]; first compound 3.162 µM) | relative viability ([3]; first compound 10 µM) | relative viability ([4]; first compound 0.1 µM) | relative viability ([4]; first compound 0.3162 µM) | relative viability ([4]; first compound 1 µM) | relative viability ([4]; first compound 3.162 µM) | relative viability ([4]; first compound 10 µM) |
| --- | --- | --- | --- | --- | --- | --- | --- | --- | --- | --- | --- | --- | --- | --- | --- | --- | --- | --- | --- | --- |
| HCC-78 | 0.334 | 0.305 | 0.35 | 0.353 | 0.302 | 0.446 | 0.38 | 0.47 | 0.478 | 0.557 | 0.576 | 0.551 | 0.712 | 0.344 | 0.551 | 0.676 | 0.602 | 0.781 | 0.667 | 0.639 |
| HCC-366 | 0.454 | 0.392 | 0.548 | 0.486 | 0.27 | 1.07 | 1 | 0.96 | 1.18 | 1.05 | 0.604 | 1.83 | 0.694 | 0.608 | 0.592 | 0.3 | 0.399 | 0.328 | 0.354 | 0.352 |
| HCC-827 | 0.956 | 1.01 | 0.987 | 0.916 | 0.602 | 1.06 | 1.01 | 1.05 | 1.08 | 1.04 | 0.96 | 0.936 | 1.04 | 1.02 | 0.734 | 0.336 | 0.269 | 0.395 | 0.288 | 0.315 |
| HOP-62 | 0.7 | 1.01 | 1.09 | 0.829 | 0.977 | 0.932 | 0.85 | 0.333 | 0.555 | 0.897 | 1.04 | 0.938 | 1.1 | 1.17 | 1.04 | 0.231 | 0.179 | 0.248 | 0.202 | 0.209 |
| LC-2-ad | 0.443 | 0.392 | 0.535 | – | 0.43 | 1.12 | 0.996 | 0.885 | 0.996 | 0.933 | 0.818 | 0.831 | 0.899 | 0.857 | 0.726 | 0.866 | 0.766 | 0.81 | 0.849 | 0.728 |
| LCLC-97TM1 | 0.424 | – | 0.331 | 0.267 | 0.287 | 1.14 | 0.616 | 0.597 | 0.654 | 0.499 | 0.221 | – | 0.172 | 0.201 | 0.182 | 0.24 | 0.239 | 0.243 | 0.237 | 0.246 |
| LCLC-103H | 1.08 | 1.12 | 1.08 | 1.09 | 0.926 | 1.04 | 0.986 | 1.18 | 1.02 | 1.12 | 1.04 | 1.11 | 1.05 | 1.2 | 1.15 | 0.728 | 0.762 | 0.732 | 0.764 | 0.72 |
| LOU-NH91 | 0.795 | 0.818 | 0.719 | 0.754 | 0.715 | 0.455 | 0.559 | 0.511 | 0.554 | 0.495 | 0.94 | 0.932 | 0.945 | 0.872 | 0.944 | 0.786 | 0.828 | 0.809 | 0.805 | 0.824 |
| LU99A | 0.542 | 0.565 | 0.595 | 0.6 | 0.469 | 1.32 | 1.09 | 1.09 | 1.13 | 1.12 | 0.484 | 0.596 | 0.58 | 0.597 | 0.505 | 0.746 | 1.1 | 1.05 | 0.91 | 0.711 |
| LXF-289 | 0.815 | 0.784 | 0.806 | 0.83 | 0.736 | 0.989 | 0.964 | 0.985 | 0.999 | 0.978 | 0.982 | 1.01 | 0.96 | 0.983 | 0.956 | 0.373 | 0.357 | 0.384 | 0.41 | 0.388 |
| NCI-H23 | 0.472 | 0.42 | 0.451 | 0.598 | 0.39 | 0.959 | 0.712 | 0.796 | 1.03 | 1.01 | 0.646 | 0.541 | 0.652 | 0.724 | 0.572 | 0.309 | 0.319 | 0.326 | 0.291 | 0.335 |
| NCI-H322M | 1.19 | 1.04 | 0.941 | 0.979 | 0.733 | 1.29 | 1.2 | 1.11 | 1.14 | 1.18 | 0.832 | 0.915 | 0.967 | 1.02 | 0.893 | 0.631 | 0.673 | 0.717 | 0.689 | 0.65 |
| NCI-H441 | 0.662 | 0.655 | 0.637 | 0.686 | 0.641 | 0.396 | 0.309 | 0.378 | 0.67 | 0.929 | 0.538 | 0.462 | 0.654 | 0.533 | 0.473 | 0.212 | 0.238 | 0.228 | 0.229 | 0.223 |
| NCI-H460 | 0.869 | 1.2 | 0.91 | 1.01 | 0.551 | 0.908 | 1.08 | 1.06 | 1.28 | 1.17 | 0.789 | 1.84 | 1.08 | 1.02 | 0.695 | 0.446 | 0.698 | 0.547 | 0.475 | 0.379 |
| NCI-H520 | 0.858 | 0.874 | 1.09 | 0.706 | 0.616 | 0.471 | 0.309 | 0.495 | 0.565 | 0.446 | 0.94 | 0.906 | 0.929 | 0.996 | 0.848 | 0.502 | 0.564 | 0.568 | 0.589 | 0.501 |
